Assay results published in patent US11427574B2, “Compounds for treating Rac-GTPase mediated disorder” (Children's Medical Center Corporation, priority 2015, dated 2022).

Legend:
[1] = target: T1, CDC42 (Homo sapiens, UniProt P60953); assay: CDC42 activation pull down assay (Western blot); assay type: cell-based; settings: Western Blot (FIG. 10a)
T1 construct: endogenous in cells
Protocol: To determine which of these compounds should be further pursued, a biochemical pull down assay was performed to confirm specific inhibition of Rac activation indicated by disruption of the interaction between Rac and […]. The assay initially required treatment of cells followed by pull down and analysis with Western blot. The cells were first starved in serum free media for 2 hours. They were then re-suspended in serum-containing medium and inhibitors added at desired concentration. Following incubation for the desired length of time, the cells were pelleted and lysed with Magnesium Lysis Buffer (Millipore Mg^2+ lysis/wash buffer). The Rac protein and any bound proteins were then collected with Pak Beads (Millipore Rac/cdc42 Assay Reagent (PAK-1 PBD, agarose). Bound protein was subsequently removed with lysis buffer and subject to Western Blot analysis.
Compound 1 was tested to evaluate its effect on CDC42 activation. In this case, beads for the immunoprecipitation were coated with a CDC42 effector domain. […] The Western Blot and pull down analyses are also shown for DMSO and […].

[2] = target: MAP3K2 (MEKK2) (Homo sapiens, UniProt Q9Y2U5); assay: Kinase screening; assay type: biochemical
Protocol: (§1) Compound 1 was tested for its efficacy in inhibiting activities of 40 kinases and binding with 12 GPCRs both as an antagonist and an agonist.

[3] = target: JAK1 (Homo sapiens, UniProt P23458); assay: Kinase screening; assay type: biochemical
Protocol: as §1

[4] = target: MAP2K2 (MEK2) (Homo sapiens, UniProt P36507); assay: Kinase screening; assay type: biochemical
Protocol: as §1

[5] = target: CDC42 BPA (MRCKA) (Homo sapiens, UniProt Q5VT25); assay: Kinase screening; assay type: biochemical
Protocol: as §1

[6] = target: PAK3 (Homo sapiens, UniProt O75914); assay: Kinase screening; assay type: biochemical
Protocol: as §1

[7] = target: PAK4 (Homo sapiens, UniProt O96013); assay: Kinase screening; assay type: biochemical
Protocol: as §1

[8] = target: PAK7 (KIAA1264) (Homo sapiens, UniProt Q9P286); assay: Kinase screening; assay type: biochemical
Protocol: as §1

[9] = target: ROCK1 (Homo sapiens, UniProt Q13464); assay: Kinase screening; assay type: biochemical
Protocol: as §1

[10] = target: AKT2 (PKB beta) (Homo sapiens, UniProt P31751); assay: Kinase screening; assay type: biochemical
Protocol: as §1

[11] = target: SRC (Homo sapiens, UniProt P12931); assay: Kinase screening; assay type: biochemical
Protocol: as §1

[12] = target: EGFR (ErbB1) (Homo sapiens, UniProt P00533); assay: Kinase screening; assay type: biochemical
Protocol: as §1

[13] = target: AKT1 (PKB alpha) (Homo sapiens, UniProt P31749); assay: Kinase screening; assay type: biochemical
Protocol: as §1

[14] = target: FRAP1 (mTOR) (Homo sapiens, UniProt P42345); assay: Kinase screening; assay type: biochemical
Protocol: as §1

[15] = target: FLT3 (Homo sapiens, UniProt P36888); assay: Kinase screening; assay type: biochemical
Protocol: as §1

[16] = target: MYLK (MLCK) (Homo sapiens, UniProt Q15746); assay: Kinase screening; assay type: biochemical
Protocol: as §1

[17] = target: LIMK1 (Homo sapiens, UniProt P53667); assay: Kinase screening; assay type: biochemical
Protocol: as §1

[18] = target: PIK3C3 (hVPS34) (Homo sapiens, UniProt Q8NEB9); assay: Kinase screening; assay type: biochemical
Protocol: as §1

[19] = system: Loucy cells; assay: Proliferation assay in Loucy leukemia cells; assay type: cell-based; settings: read-out: IC50, inhibition of proliferation
Protocol: Dose Dependent Inhibition of Proliferation The 100 compounds selected from the initial in silico screen were assayed for inhibition of proliferation in two leukemia cell lines, SEM and P12 by Cell Titer Glo. The cells for the proliferation assay were spun down and re-suspended. The cell suspension was then divided and the compound to be tested added in desired concentrations and subsequently plated. Following an incubation period, the Cell Titer Glo reagent (Promega CellTiter 96® Aqueous Non-Radioactive Cell Proliferation Assay) was added and allowed to incubate. The absorbance is subsequently measured at 490 nm using a plate reader. Each compound was analyzed for its effects on cell proliferation.
The lead compound, i.e. Compound 1, was analyzed for its effect on cell proliferation at various doses on three different leukemia cell lines: SEM, P12, and Loucy. In order to quantitate the percentage inhibition of cell proliferation, Cell Titer Glo analysis was completed as described in Example 2 above.
FIGS. 3a-3c show three graphs illustrating the dose dependent inhibition of proliferation of Compound 1 in SEM, P12, and Loucy cells as measured by MTS assay. […] Compound 1 was further analyzed for its effect on cell apoptosis and cell death using a flow based assay using Annexin V staining.

[20] = target: Rac1 (Homo sapiens, UniProt P63000); assay: 2D NMR spectroscopy binding assay; settings: 50 μM Rac1 and 250 μM or 400 μM Compound 1
Protocol: Compound 1 was tested for its efficacy in binding with Rac1 in two independent binding assays, i.e., 2D NMR spectroscopy and Homologous time resolved fluorescence assay (HTRF).
In the 2D NMR assay, samples containing 50 μM Rac1 and 250 μM or 400 μM Compound 1 were used.
Compound 2 was tested for its efficacy in binding with Rac1 in two independent binding assays, i.e., 2D NMR spectroscopy and Homologous time resolved fluorescence assay (HTRF).
In the 2D NMR assay, a sample containing 50 μM Rac1 and 250 μM Compound 2 was used.

[21] = system: Rac; assay: Rac activation Elisa on spleen infiltrated by leukemic blasts; assay type: in vivo; settings: mice, 250 mg/Kg twice a day for 21 days, compared to a vehicle
Protocol: Compound 1 was assayed for its pharmacokinetics and anti-leukemia activities in mice. Specifically, a SEM leukemic cell line was labeled with a vector encoding the mCherry tag and Luciferase. 500,000 labeled cells were injected into immunodeficient mice (NSG mice). After establishment of leukemia (as assessed by bioluminescent imaging), mice were treated with Compound 1 at a dose 250 mg/Kg or a vehicle for 21 days twice a day. During treatment, mice were imaged every other day and BLI recorded and analyzed. 2 hours after the last dose, animals were sacrificed and organs harvested for PK and PD analysis.

T1 sequence (P60953 whole entry): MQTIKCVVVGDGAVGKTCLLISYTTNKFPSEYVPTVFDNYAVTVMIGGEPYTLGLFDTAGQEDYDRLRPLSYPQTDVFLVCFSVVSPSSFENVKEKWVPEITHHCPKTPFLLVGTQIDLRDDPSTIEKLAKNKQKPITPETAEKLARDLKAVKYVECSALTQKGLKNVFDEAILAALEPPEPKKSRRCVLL
Chain of CDC42 BPA (MRCKA) (Q5VT25 whole entry, species assumed): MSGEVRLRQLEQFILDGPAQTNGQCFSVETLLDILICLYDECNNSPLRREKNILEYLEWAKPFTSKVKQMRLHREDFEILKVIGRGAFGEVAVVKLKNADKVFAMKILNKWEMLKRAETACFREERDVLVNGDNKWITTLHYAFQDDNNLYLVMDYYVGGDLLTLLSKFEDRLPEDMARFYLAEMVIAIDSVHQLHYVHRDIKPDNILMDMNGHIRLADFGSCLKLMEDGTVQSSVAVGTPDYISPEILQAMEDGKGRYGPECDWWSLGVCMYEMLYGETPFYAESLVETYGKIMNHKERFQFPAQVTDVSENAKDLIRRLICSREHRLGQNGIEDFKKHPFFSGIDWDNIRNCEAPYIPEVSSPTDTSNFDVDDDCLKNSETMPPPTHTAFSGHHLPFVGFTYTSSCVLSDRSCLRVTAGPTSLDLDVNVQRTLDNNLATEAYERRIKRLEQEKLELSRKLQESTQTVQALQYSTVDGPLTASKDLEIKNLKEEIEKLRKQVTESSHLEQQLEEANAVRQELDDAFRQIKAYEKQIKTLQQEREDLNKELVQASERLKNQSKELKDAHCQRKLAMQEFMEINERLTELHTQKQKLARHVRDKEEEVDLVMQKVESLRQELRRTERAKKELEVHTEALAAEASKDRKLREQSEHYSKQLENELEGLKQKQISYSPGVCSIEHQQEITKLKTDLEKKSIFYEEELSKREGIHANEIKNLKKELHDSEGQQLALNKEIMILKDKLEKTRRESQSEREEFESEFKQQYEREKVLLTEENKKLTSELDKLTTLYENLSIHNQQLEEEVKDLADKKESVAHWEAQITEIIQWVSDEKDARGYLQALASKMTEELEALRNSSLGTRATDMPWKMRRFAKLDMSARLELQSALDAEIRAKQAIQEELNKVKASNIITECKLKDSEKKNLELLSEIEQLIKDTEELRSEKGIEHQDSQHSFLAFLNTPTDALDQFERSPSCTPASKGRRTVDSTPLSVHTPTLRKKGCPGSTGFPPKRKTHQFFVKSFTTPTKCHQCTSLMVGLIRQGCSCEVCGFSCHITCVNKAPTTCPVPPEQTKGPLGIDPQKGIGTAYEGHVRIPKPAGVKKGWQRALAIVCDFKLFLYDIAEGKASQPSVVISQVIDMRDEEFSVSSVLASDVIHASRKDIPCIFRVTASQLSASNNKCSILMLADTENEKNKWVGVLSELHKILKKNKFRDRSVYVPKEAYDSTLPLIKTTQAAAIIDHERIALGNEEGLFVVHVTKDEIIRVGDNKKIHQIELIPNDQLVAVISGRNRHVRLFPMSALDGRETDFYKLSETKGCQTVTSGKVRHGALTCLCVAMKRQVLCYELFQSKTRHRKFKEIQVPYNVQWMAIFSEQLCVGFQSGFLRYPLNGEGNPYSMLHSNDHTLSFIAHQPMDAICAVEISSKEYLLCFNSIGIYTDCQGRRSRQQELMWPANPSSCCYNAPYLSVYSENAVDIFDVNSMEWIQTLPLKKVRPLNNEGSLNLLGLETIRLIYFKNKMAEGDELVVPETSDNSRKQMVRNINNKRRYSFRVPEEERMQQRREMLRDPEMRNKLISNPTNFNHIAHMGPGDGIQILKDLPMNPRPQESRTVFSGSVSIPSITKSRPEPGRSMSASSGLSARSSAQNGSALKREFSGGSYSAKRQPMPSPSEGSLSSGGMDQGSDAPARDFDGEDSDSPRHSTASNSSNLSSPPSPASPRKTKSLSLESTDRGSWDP
Chain of JAK1 (P23458 whole entry, species assumed): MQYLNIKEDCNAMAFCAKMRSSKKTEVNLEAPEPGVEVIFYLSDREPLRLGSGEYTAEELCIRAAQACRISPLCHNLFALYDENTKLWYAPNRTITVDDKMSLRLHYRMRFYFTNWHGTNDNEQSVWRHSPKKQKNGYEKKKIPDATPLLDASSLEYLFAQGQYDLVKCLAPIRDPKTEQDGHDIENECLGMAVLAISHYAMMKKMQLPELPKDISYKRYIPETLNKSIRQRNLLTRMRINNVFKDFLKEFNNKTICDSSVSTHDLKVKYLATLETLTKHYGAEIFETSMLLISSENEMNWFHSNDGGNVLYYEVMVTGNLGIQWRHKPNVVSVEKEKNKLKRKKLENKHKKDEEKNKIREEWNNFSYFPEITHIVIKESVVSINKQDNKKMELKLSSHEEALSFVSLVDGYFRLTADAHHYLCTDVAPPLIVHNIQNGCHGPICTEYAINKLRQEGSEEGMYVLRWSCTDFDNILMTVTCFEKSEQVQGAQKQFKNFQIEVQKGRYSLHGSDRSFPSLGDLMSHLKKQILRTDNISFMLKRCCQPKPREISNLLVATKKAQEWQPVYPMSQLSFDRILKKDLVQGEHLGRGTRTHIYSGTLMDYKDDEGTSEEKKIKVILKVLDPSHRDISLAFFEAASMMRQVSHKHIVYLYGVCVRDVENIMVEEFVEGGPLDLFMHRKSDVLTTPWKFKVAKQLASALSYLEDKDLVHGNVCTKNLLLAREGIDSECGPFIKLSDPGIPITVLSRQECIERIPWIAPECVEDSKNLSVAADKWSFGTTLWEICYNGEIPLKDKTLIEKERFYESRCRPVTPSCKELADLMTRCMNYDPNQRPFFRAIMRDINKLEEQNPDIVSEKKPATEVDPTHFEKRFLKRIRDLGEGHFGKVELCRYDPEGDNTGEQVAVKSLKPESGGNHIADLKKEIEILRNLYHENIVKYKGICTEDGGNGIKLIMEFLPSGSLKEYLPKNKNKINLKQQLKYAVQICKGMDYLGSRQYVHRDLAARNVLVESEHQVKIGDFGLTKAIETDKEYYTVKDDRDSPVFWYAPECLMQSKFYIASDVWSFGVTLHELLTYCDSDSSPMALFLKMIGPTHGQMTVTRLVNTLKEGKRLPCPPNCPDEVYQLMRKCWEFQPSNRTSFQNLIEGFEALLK
Chain of MAP2K2 (MEK2) (P36507 whole entry, species assumed): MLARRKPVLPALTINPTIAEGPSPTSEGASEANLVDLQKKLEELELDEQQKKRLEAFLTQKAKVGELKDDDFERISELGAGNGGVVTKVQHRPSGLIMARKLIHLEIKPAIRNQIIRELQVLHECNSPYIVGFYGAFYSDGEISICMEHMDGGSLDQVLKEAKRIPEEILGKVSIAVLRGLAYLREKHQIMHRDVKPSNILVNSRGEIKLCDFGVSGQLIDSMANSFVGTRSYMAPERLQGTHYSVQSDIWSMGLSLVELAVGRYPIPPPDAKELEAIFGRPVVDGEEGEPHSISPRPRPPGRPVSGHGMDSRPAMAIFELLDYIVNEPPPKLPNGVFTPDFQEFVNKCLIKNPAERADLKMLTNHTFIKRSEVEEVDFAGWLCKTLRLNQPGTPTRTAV
Chain of PIK3C3 (hVPS34) (Q8NEB9 whole entry): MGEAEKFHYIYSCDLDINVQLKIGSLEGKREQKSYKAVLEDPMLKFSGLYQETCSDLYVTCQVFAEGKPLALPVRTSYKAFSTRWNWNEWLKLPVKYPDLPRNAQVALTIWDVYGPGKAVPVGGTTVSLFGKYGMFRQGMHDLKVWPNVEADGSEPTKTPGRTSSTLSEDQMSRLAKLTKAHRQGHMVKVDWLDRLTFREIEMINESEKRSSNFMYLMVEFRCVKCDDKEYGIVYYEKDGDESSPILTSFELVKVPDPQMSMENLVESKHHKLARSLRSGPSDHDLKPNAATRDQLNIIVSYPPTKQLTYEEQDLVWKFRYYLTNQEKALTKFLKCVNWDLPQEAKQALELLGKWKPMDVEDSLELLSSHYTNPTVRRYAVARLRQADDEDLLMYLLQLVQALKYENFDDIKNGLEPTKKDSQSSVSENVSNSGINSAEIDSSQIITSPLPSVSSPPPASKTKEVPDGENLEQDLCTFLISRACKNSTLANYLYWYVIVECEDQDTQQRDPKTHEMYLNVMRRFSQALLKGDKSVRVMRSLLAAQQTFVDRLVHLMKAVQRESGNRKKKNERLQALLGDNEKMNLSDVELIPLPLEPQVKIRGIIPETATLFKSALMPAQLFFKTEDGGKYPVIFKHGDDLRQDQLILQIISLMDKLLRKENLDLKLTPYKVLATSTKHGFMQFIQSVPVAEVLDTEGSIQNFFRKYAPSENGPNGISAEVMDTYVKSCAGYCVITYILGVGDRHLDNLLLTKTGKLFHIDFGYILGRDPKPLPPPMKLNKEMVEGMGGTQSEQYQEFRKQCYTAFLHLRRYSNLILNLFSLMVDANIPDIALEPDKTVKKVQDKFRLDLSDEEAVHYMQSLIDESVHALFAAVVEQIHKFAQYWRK
Chain of SRC (P12931 whole entry, species assumed): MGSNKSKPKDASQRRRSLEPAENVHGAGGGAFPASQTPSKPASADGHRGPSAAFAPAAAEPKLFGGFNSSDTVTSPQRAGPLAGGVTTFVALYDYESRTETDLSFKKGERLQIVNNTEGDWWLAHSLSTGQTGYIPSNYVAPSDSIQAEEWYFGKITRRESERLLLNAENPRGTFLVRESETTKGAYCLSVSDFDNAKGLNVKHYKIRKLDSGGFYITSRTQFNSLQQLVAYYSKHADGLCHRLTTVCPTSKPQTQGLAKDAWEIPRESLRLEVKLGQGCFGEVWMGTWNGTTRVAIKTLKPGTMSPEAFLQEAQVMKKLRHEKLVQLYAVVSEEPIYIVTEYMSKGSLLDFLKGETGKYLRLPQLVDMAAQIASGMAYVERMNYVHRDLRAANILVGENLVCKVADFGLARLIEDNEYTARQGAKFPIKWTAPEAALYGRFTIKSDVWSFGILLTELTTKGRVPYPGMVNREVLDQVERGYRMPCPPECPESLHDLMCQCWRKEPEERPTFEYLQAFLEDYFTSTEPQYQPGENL

total CDC42 levels [1]: no significant effect
CDC42 activation ([1]; pull down): dose dependent reduction
inhibition percentage [2]: 5.9 percentage
inhibition percentage [3]: −3.3 percentage
inhibition percentage [4]: 13.3 percentage
inhibition percentage [5]: 2.8 percentage
inhibition percentage [6]: −10.2 percentage
inhibition percentage [7]: 6.4 percentage
inhibition percentage [8]: −11.5 percentage
inhibition percentage [9]: −4.6 percentage
inhibition percentage [10]: 11.5 percentage
inhibition percentage [11]: 8.7 percentage
inhibition percentage [12]: −10.4 percentage
inhibition percentage [13]: −6.7 percentage
inhibition percentage [14]: 0.9 percentage
inhibition percentage [15]: −15.3 percentage
inhibition percentage [16]: 1.2 percentage
inhibition percentage [17]: −1.1 percentage
inhibition percentage [18]: −12.5 percentage
IC50 [19]: 160 µM
binding to Rac1 by 2D NMR [20]: did not indicate any binding
Compound: CCc1ccc(CN(C)C(=O)CCc2nnc(CCc3c[nH]c4ccccc34)o2)nc1 (racemic) [Compound 1]
Rac activation status in spleen [21]: reduced Rac activation
